Consider 8 molecules from ChEMBL document CHEMBL1201862, “PubChem BioAssay data set” (2004).

Structures are written as SMILES.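 Cells were grown in 96-well plates and exposed to each compound for 48 hours at five concentrations; endpoints were interpolated linearly between bracketing concentrations, or set to the highest concentration if not reached. GI50 = concentration required for 50% inhibition of growth.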 Calls of active or inactive are those of the source. Rule as the data show it: active = GI50 up to about 1.1 µM and inactive = higher.

Test in all cases: growth of human tumour cells (NCI), 48 h
For assay [1], the system named is CAKI-1.
Assay [2] has as its system EKVX.
The test system of assay [3] is HCC 2998.
In assay [4] the test system is HL-60.
The test system of assay [5] is HOP-62.
Assay [6] deals with HOP-92.
For assay [7], the system named is IGROV-1.
In assay [8] the test system is M14.
The test system of assay [9] is OVCAR-4.
For assay [10], the system named is RXF 393.
For assay [11], the system named is SF-268.
Assay [12] relates to SK-MEL-2.
The test system of assay [13] is SN12C.
Assay [14] relates to SW-620.
In assay [15] the test system is T47D.
Assay [16] deals with UACC-62.
Assay [17] concerns NCI-H460.
Assay [18] deals with NCI-H226.
Assay [19] concerns SK-OV-3.

On to `COc1ccccc1NC(=O)CC(=O)N1N=C(C)C(/N=N/c2ccc(C(=O)O)cc2)C1=O` (stereo not given), for which the GI50 is > 100 µM (inactive) in [1]; 28.6 µM (inactive) in [2]; > 100 µM (inactive) in assay [3]; > 100 µM (inactive) in [4]; > 100 µM (inactive) in assay [5]; 28.2 µM (inactive) in assay [6]. In addition, the GI50 in assay [7], in assay [8], in [9], in assay [10], in [11] and in [12] was > 100 µM (inactive) throughout. In addition, the GI50 in [13], in assay [14], in assay [15] and in assay [16] was > 100 µM (inactive) in each case.

For the molecule `CCC(=O)Nc1cccc(NC(=O)c2c(Cl)c(Cl)c(Cl)c(Cl)c2-c2nc3ccccc3[nH]2)c1`, the GI50 in [1] is 82.4 µM (inactive); in [2], 52.8 µM (inactive); in [3], 49.7 µM (inactive); in assay [4], 43 µM (inactive); in [6], 5.36 µM (inactive); in assay [7], 14.2 µM (inactive). The GI50 was 29 µM (inactive) in [8]; 37.8 µM (inactive) in assay [17]; 71.6 µM (inactive) in [9]; 21.6 µM (inactive) in assay [10]; 79.4 µM (inactive) in assay [11]; > 100 µM (inactive) in assay [12]. For the same molecule, the GI50 in assay [13] is > 100 µM (inactive); in assay [14], > 100 µM (inactive); in [15], 7.82 µM (inactive); in assay [16], 5.21 µM (inactive).

As for `Cc1c(C)c2c(c(N)c1C#N)C(=O)N(O)C2=O`, the GI50 in assay [1], in assay [2], in assay [3], in [4], in assay [6] and in assay [7] was > 100 µM (inactive) each time. Moreover, the GI50 in assay [8], in [18], in [17], in assay [9], in assay [10] and in assay [11] was > 100 µM (inactive) throughout. In addition, the GI50 in assay [12], in assay [19], in assay [13], in assay [14], in [15] and in assay [16] was > 100 µM (inactive) in each case.

Consider `COc1ccc2c(=O)c3ccoc3[nH]c2c1`, for which the GI50 in [1], in assay [2], in assay [3], in assay [4], in assay [5] and in assay [6] was > 100 µM (inactive) each time. Further, the GI50 in assay [7], in [8], in assay [18], in assay [17], in [9] and in assay [10] was > 100 µM (inactive) in each case. Also, the GI50 in assay [11], in [12], in [19], in assay [14], in assay [15] and in assay [16] was > 100 µM (inactive) each time.

On to `COc1cc2c(c3c1c(=O)c1ccccc1n3C)C=C([N+](=O)[O-])C(C)(C)O2`, for which the GI50 in assay [1] is 0.223 µM (active); in assay [3], 0.325 µM (active); in [4], 0.167 µM (active); in [5] it was 30.9 µM (inactive); in assay [6], 0.431 µM (active); in assay [7], 0.575 µM (active). Besides, the GI50 in [8] is 0.157 µM (active); in [18], 0.546 µM (active); in [17] it was < 0.0201 µM (active); in assay [9] it was > 100 µM (inactive); in [10] it was 0.132 µM (active); in assay [11], 0.608 µM (active). The GI50 in [12] was 0.0991 µM (active); in assay [19], 0.356 µM (active); in [15], > 100 µM (inactive); in [16], 0.769 µM (active).

With `CC1C/C(=C\c2ccc(OC(=O)C(C)(C)C)cc2)C(=O)/C(=C/c2ccc(OC(=O)C(C)(C)C)cc2)C1` (stereo not given), the GI50 in [1] was > 100 µM (inactive); in assay [2], > 100 µM (inactive); in assay [3] it was > 100 µM (inactive); in assay [4], 23.5 µM (inactive); in [5] it was 41.2 µM (inactive); in assay [6], > 100 µM (inactive). Further, the GI50 in [7] is 7.64 µM (inactive); in [8] it was > 100 µM (inactive); in assay [18], 22.2 µM (inactive); in assay [17] it was > 100 µM (inactive); in [9], 31.4 µM (inactive); in [10], 19.8 µM (inactive). Moreover, the GI50 in assay [11] was 87.7 µM (inactive); in assay [12] it was 61 µM (inactive); in [19] it was > 100 µM (inactive); in [13] it was 26.2 µM (inactive); in assay [14], > 100 µM (inactive); in assay [15], 59.3 µM (inactive). In assay [16], the GI50 is 95.5 µM (inactive).

For `O=C(/C=C1\N=C(c2ccccc2)N(c2nc3ccc(Sc4ccccc4)cc3[nH]2)C1=O)/C=C/c1ccccc1`, the GI50 in assay [1] is 31.3 µM (inactive); in [2], 43.4 µM (inactive); in [3], 17.4 µM (inactive); in assay [4], 20.8 µM (inactive); in assay [5], 39.7 µM (inactive); in assay [6] it was 37.8 µM (inactive). Besides, the GI50 in [7] is 45.4 µM (inactive); in assay [8] it was 33.3 µM (inactive); in [17], 30.2 µM (inactive); in assay [9], 39.8 µM (inactive); in [10], 22.8 µM (inactive); in assay [11] it was 31.4 µM (inactive). In addition, the GI50 is 18.7 µM (inactive) in assay [12]; 40.9 µM (inactive) in [19]; 40 µM (inactive) in assay [13]; 33.9 µM (inactive) in [14]; 22.6 µM (inactive) in assay [15]; 22.9 µM (inactive) in [16].

`Cc1ccc(NCCN(C)C)c2c(=O)c3cc(O)ccc3oc12`: the GI50 in assay [1] is 10.6 µM (inactive); in assay [2] it was 15.7 µM (inactive); in assay [3], 11.9 µM (inactive); in [4], 2.29 µM (inactive); in [5], 11 µM (inactive); in assay [6], 11.1 µM (inactive). The GI50 in [7] was 12.3 µM (inactive); in [8], 12.4 µM (inactive); in assay [18] it was 15.8 µM (inactive); in assay [17], 0.889 µM (active); in assay [9] it was 17 µM (inactive); in assay [10], 11.9 µM (inactive). In addition, the GI50 in [11] is 5.35 µM (inactive); in assay [12] it was 20.6 µM (inactive); in [19], 13.4 µM (inactive); in [13], 7.59 µM (inactive); in assay [14], 4.12 µM (inactive); in assay [15] it was 16.5 µM (inactive). The GI50 in assay [16] was 10.1 µM (inactive).
